{"source": "patent EP0133934A2", "about": "“Pharmacologically active 1,3,4-thiadiazol-(3,2-a)-thieno-(2,3-d)-pyrimidin-5-(H)one derivatives” (NIKEPHARMA S.r.l., priority 1983, dated 1985)", "key": {"acetic acid peritonitis": {"tested_on": "acetic acid peritonitis", "assay": "Anti-exudative activity: acetic acid peritonitis in the rat", "assay_type": "in vivo", "settings": "for EXUDATE VOLUME ml ± E.S.: controls 2.58 ± 0.18", "method": "The test was carried out according to the procedure described by Arrigoni-Martelli (Boll.Chim. Far. 107, 29, 1968). This method is based upon the evaluation of the anti-exudative effect of a drug at the peritoneal level, following a intraperitoneal injection of 10 ml/kg of a 0.5% acetic acid solution.\nThe compounds under test were administered oral ly one hour before the inflammatory agent; 30 minutes after the treatment the animals were killed and the fluid from the peritoneal cavity was drawn and measured.\nThe test compounds were administered by oral route 1 hour before intraperitoneal injection of acetic acid (10 ml/kg of a 0.5% solution).\nThe anti-exudative activity was determined on the basis of the peritoneal exudate of the treated animals, in comparison with the controls."}, "[1]": {"tested_on": "Writhing test induced by phenyl-benzoquinone", "assay": "Phenylbenzoquinone writhing test in the rat", "assay_type": "in vivo", "settings": "Rattus norvegicus, po, 10 min, read-out: % INHIBI-TION", "method": "(§1) The activity tests were carried out on male Spra gue-Dawley rats weighing 200+20 g and on male Swiss mice weighing 26+3 g.\n(§2) The test compounds were administered orally by means of gastroesophageal tube, in the form of a suspen sion in a 10 ml/kg mucilage of 5% gum arabic; and intraperitoneally in the form of an aqueous suspen sion added with a few drops of Tween 80, in the con stant volume of 10 ml/kg."}, "carrageenin oedema": {"tested_on": "carrageenin oedema", "assay": "Antiinflammatory activity: carrageenin oedema in the rat", "assay_type": "in vivo", "settings": "po, 4 h, read-out: OEDEMA INHIBITION % at the fourth hour", "method": "as §1, §2\nThe compounds under test and the control ones were administered orally one hour before the injection of 0.1 ml of 1% carrageenin in the right paw of the animals.\nThe volume of the paw was measured by means of a plethysmograph immediately before the injection and 2, 4 and 6 hours after.\nThe results were expressed as percentage inhibi tion of the oedema in the treated animals in comparison with the control animals, at the time of the maximum oedema development (fourth hour after the carrageenin injection)."}, "[2]": {"tested_on": "phenylbenzoquinone writhing test", "assay": "Phenylbenzoquinone writhing test in the mouse (ED50 and duration of effect)", "assay_type": "in vivo", "settings": "for % INHI-BITION / N° OF WRITHES IN 10' ml ± E.S.: Table 6, oral, one hour before the test; for N° OF WRITHES IN 10' ml ± E.S.: controls 52.4 ± 1.69; for % INHIBITION / Nº OF WRITHES IN 10' ml ± E.S.: Table 7, oral 1 mg/kg; for Nº OF WRITHES IN 10' ml ± E.S.: controls 53.2 ± 1.26", "method": "The analgesic effect was determined by the number of writhes of the abdomen recorded during 10 minutes (from 5 to 15 minutes after the phenylbenzo quinone injection)."}, "gastric ulceration": {"tested_on": "gastric ulceration", "assay_type": "in vivo, rat", "settings": "os", "method": "To rats fasted for 18 hours, with water ad libitum, were administered the compounds under test at \"0\" time and after 2 hours. Control rats were treated with established anti-inflammatory agents.\n6 Hours after the beginning of the test, the animals were killed by ether inhalation.\nGastric ulceration was assessed on the ground of values ranging from 0 to 4: • 0 = no ulceration; • 1 = slight iperhaemia and/or a few ulcers; • 2 = severe iperhaemia and many punctiform ulcers; • 3 = severe submucosal hemorrage, one large ulcer and many punctiform ulcers; • 4 severe submucosal hemorrage and many large ulcers.\nThe ulcerogenic index was measured by the following formula (Lwoff. J.M., J. Pharmacol., 2, 81, 1971): [formula]"}, "Carrageenin pleuritis": {"tested_on": "Carrageenin pleuritis", "assay": "Carrageenin pleuritis in the rat", "assay_type": "in vivo", "settings": "for EXUDATE VOLUME: 30 min. before carrageenin and 6 hours after, exudate at 18 hours, controls 2.76 ± 0.38", "method": "Compound HA-34 was tested for the protective activity against the exudative pleuritis reaction induced by carrageenin. HA-34 was administered 30 min. before the injection of carrageenin, and 6 hours after it. The experiment was carried out on male Spra- gue-Dawley rats, anestethized with ethyl urethane, which were subjected, in their right pleural cavity, to injection of 1.5 ml of air and then 0.1 ml of a 1% carrageenin solution, in sterile normal saline, according to the procedure by Van Armann et al. (J. Pharmac. Exp. Ther., 150, 328, 1965). Indometha cin and Piroxicam were employed as the control drugs, under the same conditions. 18 Hours after the intrapleuric carrageenin injec tion, the animals were killed by means of ether inhalation, and the pleuric exudate was collected and measured."}, "[3]": {"settings": "30 min. before phenylbenzoquinone"}}, "data": [{"smiles": "COc1ccc2c(c1)c(CC(=O)O)c(C)n2C(=O)c1ccc(Cl)cc1", "note": "[INDO, Indomethacin]", "values": [{"measurement": "inhibition in vivo at 1 mg/kg", "setting": "acetic acid peritonitis; Rattus norvegicus, po, Table 4, os, 1 mg/kg", "value": 74, "unit": "%"}, {"measurement": "inhibition in vivo at 10 mg/kg", "setting": "acetic acid peritonitis; Rattus norvegicus, po, Table 4, os, 10 mg/kg", "value": 93, "unit": "%"}, {"measurement": "inhibition in vivo at 0.1 mg/kg", "setting": "acetic acid peritonitis; Rattus norvegicus, po, Table 8, oral, 0.1 mg/kg", "value": 37.2, "unit": "%"}, {"measurement": "inhibition in vivo at 0.5 mg/kg", "setting": "acetic acid peritonitis; Rattus norvegicus, po, Table 8, oral, 0.5 mg/kg", "value": 53, "unit": "%"}, {"measurement": "inhibition in vivo at 1 mg/kg", "setting": "acetic acid peritonitis; Rattus norvegicus, po, Table 8, oral, 1 mg/kg", "value": 72.8, "unit": "%"}, {"measurement": "inhibition in vivo at 10 mg/kg", "setting": "acetic acid peritonitis; Rattus norvegicus, po, Table 8, oral, 10 mg/kg", "value": 94.8, "unit": "%"}, {"measurement": "ED50", "setting": "acetic acid peritonitis; Rattus norvegicus, oral administration 1 hour before i.p. acetic acid", "value": 0.3, "unit": "mg/kg"}, {"measurement": "EXUDATE VOLUME ml ± E.S.", "setting": "acetic acid peritonitis; Table 8, oral, 0.1 mg/kg, 1 hour before acetic acid", "value": "1.62 ± 0.09", "unit": "mL"}, {"measurement": "EXUDATE VOLUME ml ± E.S.", "setting": "acetic acid peritonitis; Table 8, oral, 0.5 mg/kg", "value": "1.21 ± 0.07", "unit": "mL"}, {"measurement": "EXUDATE VOLUME ml ± E.S.", "setting": "acetic acid peritonitis; Table 8, oral, 1 mg/kg", "value": "0.70 ± 0.09", "unit": "mL"}, {"measurement": "EXUDATE VOLUME ml ± E.S.", "setting": "acetic acid peritonitis; Table 8, oral, 10 mg/kg", "value": "0.13 ± 0.04", "unit": "mL"}, {"measurement": "inhibition in vivo at 0.5 mg/kg", "setting": "[1]", "value": 49, "unit": "%"}, {"measurement": "inhibition in vivo at 5 mg/kg", "setting": "[1]", "value": 87, "unit": "%"}, {"measurement": "inhibition in vivo at 10 mg/kg", "setting": "carrageenin oedema", "value": "57.3 ± 0.85", "unit": "%"}, {"measurement": "ED50", "setting": "[2]; Mus musculus, po, 1 h", "value": 0.5, "unit": "mg/kg"}, {"measurement": "% INHI-BITION", "setting": "[2]; 0.1 mg/kg", "value": 22.9, "unit": "%"}, {"measurement": "N° OF WRITHES IN 10' ml ± E.S.", "setting": "[2]; 0.1 mg/kg", "value": "40.4 ± 2.46"}, {"measurement": "% INHI-BITION", "setting": "[2]; 0.5 mg/kg", "value": 48.1, "unit": "%"}, {"measurement": "N° OF WRITHES IN 10' ml ± E.S.", "setting": "[2]; 0.5 mg/kg", "value": "27.2 ± 1.48"}, {"measurement": "% INHI-BITION", "setting": "[2]; 1 mg/kg", "value": 87.0, "unit": "%"}, {"measurement": "N° OF WRITHES IN 10' ml ± E.S.", "setting": "[2]; 1 mg/kg", "value": "6.8 ± 0.76"}, {"measurement": "% INHI-BITION", "setting": "[2]; 5 mg/kg", "value": 91.4, "unit": "%"}, {"measurement": "N° OF WRITHES IN 10' ml ± E.S.", "setting": "[2]; 5 mg/kg", "value": "4.5 ± 0.65"}, {"measurement": "% INHIBITION", "setting": "[2]; [3]", "value": 85.5, "unit": "%"}, {"measurement": "Nº OF WRITHES IN 10' ml ± E.S.", "setting": "[2]; [3]", "value": "7.7 ± 1.18"}, {"measurement": "% INHIBITION", "setting": "[2]; 1 h before phenylbenzoquinone", "value": 87.8, "unit": "%"}, {"measurement": "Nº OF WRITHES IN 10' ml ± E.S.", "setting": "[2]; 1 h before phenylbenzoquinone", "value": "6.5 ± 0.86"}, {"measurement": "% INHIBITION", "setting": "[2]; 3 h before phenylbenzoquinone", "value": 88.3, "unit": "%"}, {"measurement": "Nº OF WRITHES IN 10' ml ± E.S.", "setting": "[2]; 3 h before phenylbenzoquinone", "value": "6.2 ± 0.70"}, {"measurement": "% INHIBITION", "setting": "[2]; 4 h before phenylbenzoquinone", "value": 87.2, "unit": "%"}, {"measurement": "Nº OF WRITHES IN 10' ml ± E.S.", "setting": "[2]; 4 h before phenylbenzoquinone", "value": "6.8 ± 0.64"}, {"measurement": "% INHIBITION", "setting": "[2]; 6 h before phenylbenzoquinone", "value": 80.4, "unit": "%"}, {"measurement": "Nº OF WRITHES IN 10' ml ± E.S.", "setting": "[2]; 6 h before phenylbenzoquinone", "value": "10.4 ± 0.56"}, {"measurement": "% INHIBITION", "setting": "[2]; 8 h before phenylbenzoquinone", "value": 60.3, "unit": "%"}, {"measurement": "Nº OF WRITHES IN 10' ml ± E.S.", "setting": "[2]; 8 h before phenylbenzoquinone", "value": "21.2 ± 1.26"}, {"measurement": "% INHIBITION", "setting": "[2]; 24 h before phenylbenzoquinone", "value": 53.4, "unit": "%"}, {"measurement": "Nº OF WRITHES IN 10' ml ± E.S.", "setting": "[2]; 24 h before phenylbenzoquinone", "value": "24.8 ± 1.15"}, {"measurement": "% INHIBITION", "setting": "[2]; 32 h before phenylbenzoquinone", "value": 25.9, "unit": "%"}, {"measurement": "Nº OF WRITHES IN 10' ml ± E.S.", "setting": "[2]; 32 h before phenylbenzoquinone", "value": "39.4 ± 1.36"}, {"measurement": "ULCERA-TION INDEX", "setting": "gastric ulceration", "value": 250}, {"measurement": "% ANIMALS WITH ULCERS", "setting": "gastric ulceration; 20 mg/kg", "value": 100, "unit": "%"}, {"measurement": "ULCERA-TION DEGREE", "setting": "gastric ulceration; 20 mg/kg, scale 0 to 4", "value": 2.5}, {"measurement": "% INHIBITION", "setting": "Carrageenin pleuritis; 5 mg/kg", "value": 51.8, "unit": "%"}, {"measurement": "EXUDATE VOLUME", "setting": "Carrageenin pleuritis; 5 mg/kg", "value": "1.33 ± 0.34"}, {"measurement": "% INHIBITION", "setting": "Carrageenin pleuritis; 10 mg/kg", "value": 72.4, "unit": "%"}, {"measurement": "EXUDATE VOLUME", "setting": "Carrageenin pleuritis; 10 mg/kg", "value": "0.76 ± 0.20"}]}]}
